In patent US20210007356A1, “IMIDE DERIVATIVE AND FUNGICIDE CONTAINING SAID DERIVATIVE AS ACTIVE INGREDIENT” (HOKKO CHEMICAL INDUSTRY CO., LTD., priority 2018, published 2021):
Like-named read-outs stand apart in the source and are kept apart here.

Legend:
[1] = tested on: rice blast fungus (Pyricularia grisea); type: in vivo; conditions: flowable diluted to 100 ppm, 10 mL per pot foliage spray on paddy rice; inoculated day after; 7 days after inoculation
[2] = tested on: rice blast fungus (Pyricularia grisea); type: in vivo; conditions: flowable 1,000 ppm, 1 mL dripped in paddy water, inoculated after 1 week, 7 days after inoculation
[3] = tested on: rice blast fungus (Pyricularia grisea); type: in vivo; conditions: flowable 5,000 ppm, 50 mL irrigation of nursery box, paddy rice; inoculated after 3 weeks; 7 days after inoculation
[4] = tested on: barley powdery mildew fungus (Erysiphe graminis); experiment: Test Example 2: control effect against barley powdery mildew by foliage application; type: in vivo; conditions: wettable powder diluted to 100 ppm, 10 mL per pot foliage spray on barley; inoculated day after; 7 days after inoculation
[5] = tested on: rice blast fungus (Pyricularia grisea); type: in vivo; conditions: 5 g of granule on nursery box, paddy rice; inoculated after 3 weeks; 7 days after inoculation
[6] = tested on: rice sheath blight fungus (Thanatephorus cucumeris); experiment: Test Example 8: control effect against rice sheath blight by box treatment (granule); conditions: 5 g of granule on nursery box, paddy rice; inoculated after 3 weeks; 7 days after inoculation
[7] = tested on: rice sheath blight fungus (Thanatephorus cucumeris); experiment: Test Example 10: control effect against rice sheath blight by water surface application (flowable formulation); conditions: flowable 1,000 ppm, 1 mL dripped in paddy water, inoculated after 1 week, 7 days after inoculation
Protocol: (§1) Control value (%)=[1−(lesion height in sprayed plot/lesion height in unsprayed plot)]×100 (d)
By dripping treatment in paddy water, 1 mL of a diluted solution (1,000 ppm) of a flowable prepared according to Formulation Example-3 was applied to a 5-leaf-stage paddy rice (variety: Asahi) seedling (5 seedlings/stub, one stub/pot) grown in a pot ( 1/10000 are in size) filled with paddy soil (flooded) within a greenhouse. After growing for 1 week within a greenhouse, a culture of rice sheath blight fungus (Thanatephorus cucumeris) grown in advance on a rice straw medium was inoculated into the root of the formulation-treated paddy rice, and disease development was promoted in an artificial weather chamber at 26° C. (relative humidity=100%). Seven days after the inoculation, the rice sheath blight lesion height (height from the root) was examined, and the control value (%) was calculated according to formula (d). […] This test was performed with three replications, each consisting of one plot and one pot, per one formulation plot, and its average evaluation value of control effect was determined.

[8] = tested on: rice sheath blight fungus (Thanatephorus cucumeris); experiment: Test Example 6: control effect against rice sheath blight by box treatment (flowable formulation); conditions: flowable 5,000 ppm, 50 mL irrigation of nursery box, paddy rice; inoculated after 3 weeks; 7 days after inoculation
Protocol: as §1
By irrigation, 50 mL of a diluted solution (5,000 ppm) of a flowable prepared according to Formulation Example-3 was applied to a 2.5-leaf-stage paddy rice (variety: Asahi) seedling raised using a nursery box ( 1/10 the area of standard nursery box in size: 12 cm×15 cm×height 4 cm) within a greenhouse. The formulation-treated paddy rice seedling was immediately transplanted at 5 seedlings/pot into a pot ( 1/10000 are in size) filled with paddy soil (flooded). After growing for 3 weeks within a greenhouse, a culture of rice sheath blight fungus (Thanatephorus cucumeris) grown in advance on a rice straw medium was inoculated into the root of the formulation-treated paddy rice, and disease development was promoted in an artificial weather chamber at 26° C. (relative humidity=100%). Seven days after the inoculation, the rice sheath blight lesion height (height from the root) was examined, and the control value (%) was calculated according to formula (d). […] This test was performed with three replications, each consisting of one plot and one pot, per one formulation plot, and its average evaluation value of control effect was determined.

CC(C)CC(C)c1ccccc1N(C(=O)c1cc(Cl)c(Cl)s1)C(=O)c1cccnc1C(F)F (centres unmarked) [13-50]
evaluation value of control effect (from control value, number of lesions) [1]: 4 | evaluation value of control effect (from control value, number of lesions) [2]: 5 | evaluation value of control effect (from control value, number of lesions) [3]: 5 | evaluation value of control effect (from control value, lesion area percentage) [4]: 4 | evaluation value of control effect (from control value, number of lesions) [5]: 5

Cc1nc(C(F)F)c(C(=O)N(C(=O)c2scnc2C(F)(F)F)c2cccc3c2C(C)OC3(C)C)s1 (centres unmarked) [26-82]
evaluation value of control effect (from control value, number of lesions) [1]: 4 | evaluation value of control effect (from control value, lesion height) [6]: 5 | evaluation value of control effect (from control value, lesion height) [7]: 5 | evaluation value of control effect (from control value, lesion height) [8]: 5

Cc1nc(C(F)(F)F)c(C(=O)N(C(=O)c2sc(C)nc2C(F)(F)F)c2c(Br)cc(OC(F)(F)F)cc2Br)s1 [7-286]
evaluation value of control effect (from control value, number of lesions) [1]: 4 | evaluation value of control effect (from control value, lesion height) [6]: 5 | evaluation value of control effect (from control value, lesion height) [7]: 5 | evaluation value of control effect (from control value, lesion area percentage) [4]: 4 | evaluation value of control effect (from control value, lesion height) [8]: 5

Cc1nc(C(F)F)c(C(=O)N(C(=O)c2cn(C)nc2C(F)F)c2cccc3c2C(C)CC3(C)C)s1 (centres unmarked) [25-97]
evaluation value of control effect (from control value, number of lesions) [1]: 4 | evaluation value of control effect (from control value, lesion height) [6]: 5 | evaluation value of control effect (from control value, lesion height) [7]: 5 | evaluation value of control effect (from control value, lesion area percentage) [4]: 4 | evaluation value of control effect (from control value, lesion height) [8]: 5

Cc1nn(C)c(F)c1C(=O)N(C(=O)c1scnc1C(F)(F)F)c1ccccc1C(C)CC(C)C (centres unmarked) [1-336]
evaluation value of control effect (from control value, number of lesions) [1]: 4 | evaluation value of control effect (from control value, lesion area percentage) [4]: 4

CC1OC(C)(C)c2cccc(N(C(=O)c3ccccc3C(F)F)C(=O)c3snc(Cl)c3Cl)c21 (centres unmarked) [28-4]
evaluation value of control effect (from control value, number of lesions) [1]: 4 | evaluation value of control effect (from control value, number of lesions) [2]: 5 | evaluation value of control effect (from control value, lesion height) [6]: 5 | evaluation value of control effect (from control value, lesion height) [7]: 5 | evaluation value of control effect (from control value, number of lesions) [3]: 5 | evaluation value of control effect (from control value, number of lesions) [5]: 5 | evaluation value of control effect (from control value, lesion height) [8]: 5

CC(C)CC(C)c1ccccc1N(C(=O)c1cccnc1C(C)F)C(=O)c1snc(Cl)c1Cl (centres unmarked) [13-57]
evaluation value of control effect (from control value, number of lesions) [1]: 4 | evaluation value of control effect (from control value, number of lesions) [2]: 5 | evaluation value of control effect (from control value, number of lesions) [3]: 5 | evaluation value of control effect (from control value, number of lesions) [5]: 5

Cc1nnsc1C(=O)N(C(=O)c1cn(C)nc1C(F)F)c1ccccc1-c1cc(F)c(F)c(F)c1 [1-368]
evaluation value of control effect (from control value, number of lesions) [1]: 4 | evaluation value of control effect (from control value, lesion height) [6]: 5 | evaluation value of control effect (from control value, lesion height) [7]: 5 | evaluation value of control effect (from control value, lesion area percentage) [4]: 4 | evaluation value of control effect (from control value, lesion height) [8]: 5

Cc1nnsc1C(=O)N(C(=O)c1cn(C)nc1C(F)(F)F)c1ccsc1C(C)CC(C)C (centres unmarked) [5-19]
evaluation value of control effect (from control value, number of lesions) [1]: 4 | evaluation value of control effect (from control value, number of lesions) [2]: 5 | evaluation value of control effect (from control value, number of lesions) [3]: 5 | evaluation value of control effect (from control value, lesion area percentage) [4]: 5 | evaluation value of control effect (from control value, number of lesions) [5]: 5

Cc1nc(C(F)F)c(C(=O)N(C(=O)c2c(C(F)F)nn(C)c2Cl)c2ccccc2C(C)CC(C)C)s1 (centres unmarked) [7-272]
evaluation value of control effect (from control value, number of lesions) [1]: 4 | evaluation value of control effect (from control value, lesion area percentage) [4]: 4

Cc1nc(C(F)F)c(C(=O)N(C(=O)c2snnc2C)c2cccc3c2C(C)CC3(C)C)s1 (centres unmarked) [26-49]
evaluation value of control effect (from control value, number of lesions) [1]: 4 | evaluation value of control effect (from control value, number of lesions) [2]: 5 | evaluation value of control effect (from control value, number of lesions) [3]: 5 | evaluation value of control effect (from control value, lesion area percentage) [4]: 4 | evaluation value of control effect (from control value, number of lesions) [5]: 5

Cc1nn(C)c(C)c1C(=O)N(C(=O)c1snc(Cl)c1Cl)c1ccccc1C(C)CC(C)C (centres unmarked) [1-377]
evaluation value of control effect (from control value, number of lesions) [1]: 4 | evaluation value of control effect (from control value, number of lesions) [2]: 5 | evaluation value of control effect (from control value, number of lesions) [3]: 5 | evaluation value of control effect (from control value, lesion area percentage) [4]: 4 | evaluation value of control effect (from control value, number of lesions) [5]: 5

Cc1nn(C)c(Cl)c1C(=O)N(C(=O)c1snc(Cl)c1Cl)c1ccccc1C(C)CC(C)C (centres unmarked) [1-378]
evaluation value of control effect (from control value, number of lesions) [1]: 4 | evaluation value of control effect (from control value, number of lesions) [2]: 5 | evaluation value of control effect (from control value, number of lesions) [3]: 5 | evaluation value of control effect (from control value, number of lesions) [5]: 5

Cc1nn(C)c(F)c1C(=O)N(C(=O)c1scnc1C(F)F)c1ccccc1C(C)CC(C)C (centres unmarked) [1-346]
evaluation value of control effect (from control value, number of lesions) [1]: 4 | evaluation value of control effect (from control value, number of lesions) [2]: 5 | evaluation value of control effect (from control value, number of lesions) [3]: 5 | evaluation value of control effect (from control value, lesion area percentage) [4]: 4 | evaluation value of control effect (from control value, number of lesions) [5]: 5

CC(C)CC(C)c1ccccc1N(C(=O)c1snc(Cl)c1Cl)C(=O)c1c(C(F)F)nn(C)c1Cl (centres unmarked) [1-379]
evaluation value of control effect (from control value, number of lesions) [1]: 4 | evaluation value of control effect (from control value, number of lesions) [2]: 5 | evaluation value of control effect (from control value, number of lesions) [3]: 5 | evaluation value of control effect (from control value, lesion area percentage) [4]: 4 | evaluation value of control effect (from control value, number of lesions) [5]: 5

Cc1nc(C(F)F)c(C(=O)N(C(=O)c2cc(Cl)nc(Cl)c2)c2cccc3c2C(C)CC3(C)C)s1 (centres unmarked) [26-89]
evaluation value of control effect (from control value, number of lesions) [1]: 4 | evaluation value of control effect (from control value, lesion height) [6]: 5 | evaluation value of control effect (from control value, lesion height) [7]: 5 | evaluation value of control effect (from control value, lesion area percentage) [4]: 4 | evaluation value of control effect (from control value, lesion height) [8]: 5

CC(C)CC(C)c1ccccc1N(C(=O)c1ccccc1C(F)F)C(=O)c1snc(Cl)c1Cl (centres unmarked) [19-2]
evaluation value of control effect (from control value, number of lesions) [1]: 4 | evaluation value of control effect (from control value, number of lesions) [2]: 5 | evaluation value of control effect (from control value, number of lesions) [3]: 5 | evaluation value of control effect (from control value, lesion area percentage) [4]: 4 | evaluation value of control effect (from control value, number of lesions) [5]: 5

Cc1nc(C(F)F)c(C(=O)N(C(=O)c2sc(C)nc2C(F)(F)F)c2cccc3c2C(C)CC3(C)C)s1 (centres unmarked) [26-73]
evaluation value of control effect (from control value, number of lesions) [1]: 4 | evaluation value of control effect (from control value, lesion height) [6]: 5 | evaluation value of control effect (from control value, lesion height) [7]: 5 | evaluation value of control effect (from control value, lesion area percentage) [4]: 4 | evaluation value of control effect (from control value, lesion height) [8]: 5

CC(C)CC(C)c1ccccc1N(C(=O)c1cccnc1CF)C(=O)c1snc(Cl)c1Cl (centres unmarked) [13-56]
evaluation value of control effect (from control value, number of lesions) [1]: 4 | evaluation value of control effect (from control value, number of lesions) [2]: 5 | evaluation value of control effect (from control value, number of lesions) [3]: 5 | evaluation value of control effect (from control value, lesion area percentage) [4]: 4 | evaluation value of control effect (from control value, number of lesions) [5]: 5

Cc1nc(C(F)(F)F)c(C(=O)N(C(=O)c2snc(Cl)c2Cl)c2c(Br)cc(OC(F)(F)F)cc2Br)s1 [7-279]
evaluation value of control effect (from control value, number of lesions) [1]: 4 | evaluation value of control effect (from control value, lesion height) [6]: 5 | evaluation value of control effect (from control value, lesion height) [7]: 5 | evaluation value of control effect (from control value, lesion area percentage) [4]: 4 | evaluation value of control effect (from control value, lesion height) [8]: 5

Cc1nn(C)c(F)c1C(=O)N(C(=O)c1snc(Cl)c1Cl)c1ccccc1C(C)CC(C)C (centres unmarked) [1-131, 3,4-Dichloro-N-{2-(1,3-dimethylbutyl)phenyl}-N-(5-fluoro-1,3-dimethylpyrazole-4-carbonyl)isothiazole-5-carboxamide]
evaluation value of control effect (from control value, number of lesions) [1]: 4 | evaluation value of control effect (from control value, lesion height) [6]: 5 | evaluation value of control effect (from control value, lesion height) [7]: 5 | evaluation value of control effect (from control value, lesion area percentage) [4]: 4 | evaluation value of control effect (from control value, lesion height) [8]: 5
